Measurements as given in US20250346584A1, “NOVEL KAPPA OPIOID LIGANDS” (The Scripps Research Institute, priority 2012, published 2025).

Biological target: kappa opioid receptor (OPRK1) (Homo sapiens (Human), UniProt P41145)
Assay: OPRK1 antagonist assay (b-arrestin-2-TEV / b-lactamase reporter cell line, EC80 U-50488 challenge)
Type: cell-based
Conditions: read-out: IC50 nM (% inhib if other than 50%); antagonist mode vs EC80 U-50488; NA = not active at concentrations up to 10 μM

Sequence of kappa opioid receptor (OPRK1) (P41145 whole entry): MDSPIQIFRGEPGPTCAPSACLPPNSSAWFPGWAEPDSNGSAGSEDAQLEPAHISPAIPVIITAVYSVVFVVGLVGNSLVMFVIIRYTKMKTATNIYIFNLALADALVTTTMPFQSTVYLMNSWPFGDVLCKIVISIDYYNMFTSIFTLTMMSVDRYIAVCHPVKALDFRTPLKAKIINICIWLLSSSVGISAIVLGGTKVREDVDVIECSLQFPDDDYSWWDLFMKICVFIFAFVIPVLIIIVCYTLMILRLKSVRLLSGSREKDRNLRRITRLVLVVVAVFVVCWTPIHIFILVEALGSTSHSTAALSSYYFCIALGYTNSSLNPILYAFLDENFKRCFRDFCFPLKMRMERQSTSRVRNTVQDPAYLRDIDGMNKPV

IC50	SMILES
10 nM	Cc1ccc2nc(N3CCC(NC4CCCC(O)C4)CC3)c(-c3nc(C)no3)cc2c1 (centres unmarked) [compound 255]
631 nM	Cc1ccc2cc(-c3nc(C)no3)c(N3CCC(NC4CCCCC4O)CC3)nc2c1 (centres unmarked) [compound 256]
930 nM	Cc1ccc2cc(-c3nc(C)no3)c(N3CCC(NC4CCOCC4)CC3)nc2c1 [compound 257]
7160 nM	COC1CN(c2nc3ccccc3cc2C2=NCC(C)O2)CCC1NC1CCCCC1 (centres unmarked) [compound 258]
372 nM	COC1CN(c2nc3ccccc3cc2C2=NC(C)CO2)CCC1NC1CCCCC1 (centres unmarked) [compound 259]
261 nM	Cc1ccc2nc(N3CCC(NC4CCCCCCC4)CC3)c(-c3nc(C)no3)cc2c1 [compound 260]
1470 nM	Cc1ccc2nc(N3CCC(NCC4CCCCC4)CC3)c(-c3nc(C)no3)cc2c1 [compound 261]
60 nM	Cc1ccc2nc(N3CCC(NCC4CCCO4)CC3)c(-c3nc(C)no3)cc2c1 (centres unmarked) [compound 262]
1770 nM	COC1CN(c2nc3ccccc3cc2-c2ncccn2)CCC1NC1CCCCC1 (centres unmarked) [compound 263]
56 nM	OCC1CN(c2nc3ccccc3cc2-c2ncccn2)CCC1NC1CCCCC1 (centres unmarked) [compound 264]
49 nM	Cc1ccc2nc(N3CCC(NC4CC5CCC4C5)CC3)c(-c3nc(C)no3)cc2c1 (centres unmarked) [compound 265]
1740 nM	Cc1ccc2nc(N3CCC(N4CCCCC4)CC3)c(-c3nc(C)no3)cc2c1 [compound 266]
180 nM	Cc1ccc2nc(N3CCC(N(C)C4CCOCC4)CC3)c(-c3nc(C)no3)cc2c1 [compound 267]
37 nM	CCc1ccc2nc(N3CCC(NC4CCCCC4)C(OC)C3)c(-c3nc(C)no3)cc2c1 (centres unmarked) [compound 268]
30 nM	CCc1ccc2nc(N3CCC(NC4CCCCC4)C(CO)C3)c(-c3nc(C)no3)cc2c1 (centres unmarked) [compound 269]
4470 nM	Cc1ccc2nc(N3CCC(NC4COC4)CC3)c(-c3nc(C)no3)cc2c1 [compound 270]
419 nM	Cc1ccc2nc(N3CCC(NC4(C)CCOCC4)CC3)c(-c3nc(C)no3)cc2c1 [compound 271]
50 nM	Cc1ccc2nc(N3CCC(NC4CC(C)OC(C)C4)CC3)c(-c3nc(C)no3)cc2c1 (centres unmarked) [compound 274]
98 nM	Cc1noc(-c2cc3cccc(C)c3nc2N2CCC(NC3CCOCC3)CC2)n1 [compound 275]
18 nM	COC1CN(c2nc3c(C)cccc3cc2-c2nc(C)no2)CCC1NC1CCCCC1 (centres unmarked) [compound 276]
9 nM	Cc1noc(-c2cc3cccc(C)c3nc2N2CCC(NC3CCCCC3)C(CO)C2)n1 (centres unmarked) [compound 277]

IC50	SMILES
4720 nM	CNC(=O)c1cc2cc(C)ccc2nc1N1CCC(NC2CCCCC2)C(OC)C1 (centres unmarked) [compound 278]
96 nM	COC1CN(c2nc3ccc(C)cc3cc2C(=O)N(C)C)CCC1NC1CCCCC1 (centres unmarked) [compound 279]
99 nM	Cc1ccc2nc(N3CCC(NC4CCCCC4)C(CO)C3)c(C(=O)N(C)C)cc2c1 (centres unmarked) [compound 280]
30 nM	CCOC(=O)c1cc2cc(C)ccc2nc1N1CCC(NC2CCCCC2)C(OC)C1 (centres unmarked) [compound 281]
38 nM	COC1CN(c2nc3ccc(C)cc3cc2C(=O)OC(C)C)CCC1NC1CCCCC1 (centres unmarked) [compound 282]
4 nM	CCc1noc(-c2cc3cc(C)ccc3nc2N2CCC(NC3CCCCC3)C(OC)C2)n1 (centres unmarked) [compound 283]
20 nM	CCc1noc(-c2cc3cc(C)ccc3nc2N2CCC(NC3CCCCC3)C(CO)C2)n1 (centres unmarked) [compound 284]
298 nM	c1cnc(-c2cc3ccccc3nc2N2CCC(NC3CCOCC3)CC2)nc1 [compound 286]
15 nM	CCOC(=O)c1cc2cc(C)ccc2nc1N1CCC(NC2CCCCC2)C(CO)C1 (centres unmarked) [compound 288]
184 nM	CCOC(=O)c1cc2cc(C)ccc2nc1N1CCC(NC2CCOCC2)CC1 [compound 289]
47 nM	CCc1noc(-c2cc3cc(C)ccc3nc2N2CCC(NC3CCOCC3)CC2)n1 [compound 290]
18 nM	Cc1ccc2nc(N3CCC(NC4CCCCC4)C(CO)C3)c(C(=O)OC(C)C)cc2c1 (centres unmarked) [compound 291]
33 nM	COC1CN(c2nc3ccccc3cc2-c2nc(C)no2)CCC1NC1CCCCC1 (centres unmarked) [compound 292]
20 nM	COC1CN(c2nc3ccc(C)cc3cc2-c2nc(C)no2)CCC1NC1CCCCC1 (centres unmarked) [compound 293]
0.7 nM	CO[C@H]1CN(c2nc3ccc(C)cc3cc2-c2nc(C)no2)CC[C@H]1NC1CCCCC1 [compound 294]
2 nM	CO[C@H]1CN(c2nc3ccccc3cc2-c2nc(C)no2)CC[C@H]1NC1CCCCC1 [compound 295]
10 nM	CO[C@H]1CN(c2nc3ccc(F)cc3cc2-c2nc(C)no2)CC[C@H]1NC1CCCCC1 [compound 296]
2 nM	CCc1noc(-c2cc3cc(C)ccc3nc2N2CC[C@@H](NC3CCCCC3)[C@@H](OC)C2)n1 [compound 297]
25 nM	CO[C@H]1CN(c2ncc(C)cc2-c2nc(C)no2)CC[C@H]1NC1CCCCC1 [compound 299]
16 nM	CO[C@H]1CN(c2nc(C)c(C)cc2-c2nc(C)no2)CC[C@H]1NC1CCCCC1 [compound 300]
38 nM	Cc1ccc2nc(N3CCC(NC4CCCCC4)C(CO)C3)c(-c3nnc(C)o3)cc2c1 (centres unmarked) [compound 301]

IC50	SMILES
274 nM	Cc1ccc2nc(N3CCC(NC4CCOCC4)CC3)c(C(=O)OC(C)C)cc2c1 [compound 302]
0.5 nM	COC1CN(c2nc3ccc(C)cc3cc2-c2nc(C3CC3)no2)CCC1NC1CCCCC1 (centres unmarked) [compound 303]
3.5 nM	Cc1ccc2nc(N3CCC(NC4CCCCC4)C(CO)C3)c(-c3nc(C4CC4)no3)cc2c1 (centres unmarked) [compound 304]
17 nM	Cc1ccc2nc(N3CCC(NC4CCOCC4)CC3)c(-c3nc(C4CC4)no3)cc2c1 [compound 305]
107 nM	COC1CN(c2nc3cc(C)c(C)cc3cc2-c2nc(C)no2)CCC1NC1CCCCC1 (centres unmarked) [compound 306]
41 nM	Cc1noc(-c2cc3cc(C)c(C)cc3nc2N2CCC(NC3CCCCC3)C(CO)C2)n1 (centres unmarked) [compound 307]
2.5 nM	COC1CN(c2nc3ccccc3cc2-c2nc(C)no2)CCC1NC1CCCC1 (centres unmarked) [compound 308]
0.5 nM	COC1CN(c2nc3ccc(C)cc3cc2-c2nc(C)no2)CCC1NC1CCCC1 (centres unmarked) [compound 309]
4 nM	CCc1noc(-c2cc3cc(C)ccc3nc2N2CCC(NC3CCCC3)C(OC)C2)n1 (centres unmarked) [compound 310]
1 nM	COC1CN(c2nc3ccccc3cc2-c2nc(C)no2)CCC1NC1CCCCCC1 (centres unmarked) [compound 311]
0.7 nM	COC1CN(c2nc3ccc(C)cc3cc2-c2nc(C)no2)CCC1NC1CCCCCC1 (centres unmarked) [compound 312]
1.5 nM	CCc1noc(-c2cc3cc(C)ccc3nc2N2CCC(NC3CCCCCC3)C(OC)C2)n1 (centres unmarked) [compound 313]
23 nM	COC1CN(c2ncc(C)cc2-c2nc(C)no2)CCC1NC1CCCC1 (centres unmarked) [compound 316]
27 nM	COC1CN(c2nc(C)c(C)cc2-c2nc(C)no2)CCC1NC1CCCC1 (centres unmarked) [compound 317]
19 nM	COC1CN(c2ncc(C)cc2-c2nc(C)no2)CCC1NC1CCCCCC1 (centres unmarked) [compound 318]
21 nM	COC1CN(c2nc(C)c(C)cc2-c2nc(C)no2)CCC1NC1CCCCCC1 (centres unmarked) [compound 319]
170 nM	COC1CN(c2ncc(C)cc2-c2nc(C)no2)CCC1NC1CCOCC1 (centres unmarked) [compound 320]
105 nM	COC1CN(c2nc(C)c(C)cc2-c2nc(C)no2)CCC1NC1CCOCC1 (centres unmarked) [compound 321]
1340 nM	COC1CN(c2nc3ccc(C)cc3cc2C(=O)N2CCCC2)CCC1NC1CCCCC1 (centres unmarked) [compound 323]
8 nM	COC1CN(c2nc3ccccc3cc2-c2nc(C)no2)CCC1NC1CCOCC1 (centres unmarked) [compound 325]
1.9 nM	COC1CN(c2nc3ccc(C)cc3cc2-c2nc(C)no2)CCC1NC1CCOCC1 (centres unmarked) [compound 326]

IC50	SMILES
5.6 nM	CCc1noc(-c2cc3cc(C)ccc3nc2N2CCC(NC3CCOCC3)C(OC)C2)n1 (centres unmarked) [compound 327]
19 nM	Cc1ccc2nc(N3CCC(NC4CCOCC4)CC3)c(-c3noc(C)n3)cc2c1 [compound 332]
4360 nM	CCOC(=O)c1noc(-c2cc3cc(C)ccc3nc2N2CCC(NC3CCCCC3O)CC2)n1 (centres unmarked) [compound 336]
0.99 nM	CO[C@H]1CN(c2nc3ccc(C)cc3cc2-c2noc(C)n2)CC[C@H]1NC1CCCCC1 [compound 338]
10.6 nM	CO[C@H]1CN(c2nc3ccc(C)cc3cc2C(=O)OC(C)C)CC[C@H]1NC1CCCCC1 [compound 343]
1.3 nM	Cc1ccc2nc(N3CCC(NC4CCCCC4C)CC3)c(-c3nc(C)no3)cc2c1 (centres unmarked) [compound 348]
21 nM	Cc1ccc2nc(N3CCC(NC(C)C4CCCCC4)CC3)c(-c3nc(C)no3)cc2c1 (centres unmarked) [compound 349]
0.97 nM	Cc1ccc2nc(N3CCC(NC4CCC(C)CC4)CC3)c(-c3nc(C)no3)cc2c1 (centres unmarked) [compound 350]
3 nM	CCCC(C)NC1CCN(c2nc3ccc(C)cc3cc2-c2nc(C)no2)CC1 (centres unmarked) [compound 351]
3.1 nM	Cc1ccc2nc(N3CCC(NCC4CCCCC4O)CC3)c(-c3nc(C)no3)cc2c1 (centres unmarked) [compound 352]
23 nM	CCOC(=O)c1nc2cc(C)ccc2nc1N1CCC(NC2CCCCC2)C(OC)C1 (centres unmarked) [compound 353]
4.2 nM	Cc1ccc2nc(N3CCC(NCC(C)C)CC3)c(-c3nc(C4CC4)no3)cc2c1 [compound 354]
12.5 nM	CO[C@H]1CN(c2ncc(C)cc2C(=O)OC(C)C)CC[C@H]1NC1CCCCC1 [compound 356]
22.3 nM	Cc1cnc(N2CCC(C)(NC3CCCCC3)CC2)c(-c2nc(C)no2)c1 [compound 357]
8 nM	Cc1ccc2nc(N3CCC(NCC(C)O)CC3)c(-c3nc(C)no3)cc2c1 (centres unmarked) [compound 360]
1440 nM	CO[C@@H]1CN(c2ncc(C)cc2C(=O)OC(C)C)CC[C@@H]1NC1CCCCC1 [compound 361]
63 nM	CCOC(=O)c1nc2cc(C)ccc2nc1N1CCC(NC2CCCCC2)C(CO)C1 (centres unmarked) [compound 373]
45 nM	COC1CN(c2nc3ccccc3cc2-c2nc(C)no2)CCC1NCC(C)C (centres unmarked) [compound 374]

SMILES	IC50
Cc1cc(-c2nc(C)no2)c(N2CCC(NC3CCOCC3)CC2)nn1 [compound 272]	8700 nM
CO[C@@H]1CN(c2nc3ccc(F)cc3cc2-c2nc(C)no2)CC[C@@H]1NC1CCCCC1 [compound 331]	27 nM
